We go through 16 molecules from patent US11041000B2, “Peptide inhibitors of interleukin-23 receptor and their use to treat inflammatory diseases” (priority 2019, dated 2021).

Structures are written as SMILES. Numbered stars: 1 amine (or outer) side, 2 acyl side, 3 side chain; on linkers, the order of the positions; unused ones are H or OH. Bridge positions count the residues as written; N and C are the ends. Square brackets hold non-standard residues; d marks the D form. Peptide text beside a SMILES is read from it. Trp(7-Me) = Cc1cccc2c(C[C@H](N)C(=O)O)c[nH]c12; Abu(4-yl) = O=C([C@H](CC[*:3])N[*:1])[*:2]; 2Nal = N[C@@H](Cc1ccc2ccccc2c1)C(=O)O; AEF = NCCOc1ccc(C[C@H](N)C(=O)O)cc1; Cit = NC(=O)NCCC[C@H](N)C(=O)O; Pen = CC(C)(S)[C@H](N)C(=O)O; αMeK = C[C@](N)(CCCCN)C(=O)O; Aib = CC(C)(N)C(=O)O; βAla = NCCC(=O)O Bounds are passed on as bounds.

Common to all, as to type: in vitro ADME
A short description of data set [1]: Stability in simulated intestinal fluid (SIF). The settings on record: simulated intestinal fluid with pancreatin, pH 6.8, 37° C., matrix is 100 fold dilution of standard SIF concentration; for half-life at 20 μM: read-out: SIF t½ (converted); for SIF t½: 20 μM.
Experimental: SIF was prepared by adding 6.8 g of monobasic potassium phosphate and 10.0 g of pancreatin to 1.0 L of water. After dissolution, the pH was adjusted to 6.8 using NaOH. DMSO stocks (2 mM) were first prepared for the test compounds. Aliquots of the DMSO solutions were dosed into 6 individual tubes, each containing 0.5 mL of SIF, which is pre-warmed to 37° C. The final test compound concentration was 20 μM. The vials were kept in a benchtop Thermomixer® for the duration of the experiment. At each timepoint (0, 5, 10, 20, 40, 60, or 360 minutes or 24 hours), 1.0 mL of acetonitrile containing 1% formic acid was added to one vial to terminate the reaction. Samples were stored at 4° C. until the end of the experiment. After the final timepoint is sampled, the tubes were mixed and then centrifuged at 3,000 rpm for 10 minutes. Aliquots of the supernatant were removed, diluted 1:1 into distilled water containing internal standard, and analyzed by LCMS/MS. Percent remaining at each timepoint was calculated based on the peak area response ratio of test to compound to internal standard. Time 0 was set to 100%, and all later timepoints were calculated relative to time 0. Half-lives were calculated by fitting to a first-order exponential decay equation using Graphpad.
Data set [2] in a line: Stability in human fecal homogenate. The settings on record: 20% fecal homogenate (supernatant), pH 6.8, 20% human fecal homogenate, anaerobic, 37° C., read-out: t½: Human Feces anaerobic (converted). The protocol: (§1) Centrifuged the homogenate at 2800×g for 15 min. The supernatant is taken out and used for incubations. […] The final test compound concentration was 20 μM.
Data set [3] can be described thus: Stability in cynomolgus monkey fecal homogenate. To be noted: 20% fecal homogenate (supernatant), pH 6.8, 20% cynomolgus monkey fecal homogenate, anaerobic, 37° C., read-out: t½: Monkey Feces anaerobic (converted). The protocol:
as §1

A further data set in a line: Stability in rat plasma. The settings on record: both sexes, SD rat plasma, EDTA, 37° C., read-out: t½: Rat Plasma EDTA (converted).

For `CC(=O)NCCCC[C@@H]1NC(=O)[C@H](Cc2c[nH]c3c(C)cccc23)NC(=O)[C@H]([C@@H](C)O)NC(=O)[C@H](CC(N)=O)NC(=O)[C@@H](NC(C)=O)C(C)(C)SSC(C)(C)[C@@H](C(=O)N[C@@H](Cc2ccc(OCCN)cc2)C(=O)N[C@@H](Cc2ccc3ccccc3c2)C(=O)N[C@@](C)(CCCCN)C(=O)N[C@@H](CCCCNC(C)=O)C(=O)N[C@@H](CC(N)=O)C(=O)N[C@@H](Cc2c[nH]cn2)C(N)=O)NC1=O` [SEQ ID No. 248, Ac-[Pen]-NT-[W(7-Me)]-[Lys(Ac)]-[Pen]-Phe[4-(2-aminoethoxy)]-[2-Nal]-[a-MeLys]-[Lys(Ac)]-N-H-NH2], the half-life at 20 μM was 32 h in data set [1] and more than 22.3 h in data set [2].
As to `CC(=O)NCCCC[C@H](NC(=O)[C@](C)(CC(C)C)NC(=O)[C@H](Cc1ccc2ccccc2c1)NC(=O)[C@H](Cc1ccc(OCCN)cc1)NC(=O)[C@H]1NC(=O)[C@H](CCC(N)=O)NC(=O)[C@H](Cc2c[nH]c3c(C)cccc23)NC(=O)[C@H]([C@@H](C)O)NC(=O)[C@H](CC(N)=O)NC(=O)[C@@H](NC(C)=O)C(C)(C)SSC1(C)C)C(=O)N[C@H](C)C(=O)NCCC(N)=O` [compound 209], the half-life at 20 μM in data set [1] is 15 h.
Still for that read-out and setting: to `CC(=O)NCCCC[C@H](NC(=O)[C@](C)(CC(C)C)NC(=O)[C@H](Cc1ccc2ccccc2c1)NC(=O)[C@H](Cc1ccc(OCCN)cc1)NC(=O)[C@H]1NC(=O)[C@H](CCC(N)=O)NC(=O)[C@H](Cc2c[nH]c3c(C)cccc23)NC(=O)[C@H]([C@@H](C)O)NC(=O)[C@H](CC(N)=O)NC(=O)[C@@H](NC(C)=O)C(C)(C)SSC1(C)C)C(=O)N[C@H](CO)C(=O)NCCC(N)=O` [compound 222] belongs 19 h.
With `CC(=O)NCCCC[C@H](NC(=O)[C@](C)(CCCCN)NC(=O)[C@H](Cc1ccc2ccccc2c1)NC(=O)[C@H](Cc1ccc(OCCN)cc1)NC(=O)[C@H]1NC(=O)[C@H](CCC(N)=O)NC(=O)[C@H](Cc2c[nH]c3c(C)cccc23)NC(=O)[C@H]([C@@H](C)O)NC(=O)[C@H](CCCNC(N)=O)NC(=O)[C@@H](NC(C)=O)C(C)(C)SSC1(C)C)C(=O)N[C@@H](CC(N)=O)C(=O)NCCC(N)=O` [compound 238] (Ac-[Pen][Cit]T[Trp(7-Me)]Q[Pen][AEF][2Nal][αMeK]K(Ac)N[βAla]-NH2; disulfide 1-6), the “SIF t½” value in data set [1] was 24 h.
For `CC(=O)NCCCC[C@@H]1NC(=O)[C@@H](NC(C)=O)C(C)(C)SSC(C)(C)[C@@H](C(=O)N[C@@H](Cc2ccc(OCCN)cc2)C(=O)N[C@@H](Cc2ccc3ccccc3c2)C(=O)N[C@@](C)(CCCCN)C(=O)N[C@@H](CCCCNC(C)=O)C(=O)N[C@@H](CC(N)=O)C(=O)NCCC(N)=O)NC(=O)[C@H](CCC(N)=O)NC(=O)[C@H](Cc2c[nH]c3c(C)cccc23)NC(=O)[C@H]([C@@H](C)O)NC1=O` [compound 239], the “SIF t½” value in data set [1] was 24 h.
Take `CC(=O)NCCCC[C@@H]1NC(=O)[C@H](Cc2c[nH]c3c(C)cccc23)NC(=O)[C@H]([C@@H](C)O)NC(=O)[C@H](CC(N)=O)NC(=O)[C@@H](NC(C)=O)C(C)(C)SSC(C)(C)[C@@H](C(=O)N[C@@H](Cc2ccc(OCCN)cc2)C(=O)N[C@@H](Cc2ccc3ccccc3c2)C(=O)N[C@@](C)(CCCCN)C(=O)N[C@@H](CCCCNC(C)=O)C(=O)N[C@@H](CC(N)=O)C(=O)NCCC(N)=O)NC1=O` [compound 242]: the “SIF t½” value in data set [1] was 24 h.
As for `CC(=O)NCCCC[C@@H]1NC(=O)[C@H](Cc2c[nH]c3c(C)cccc23)NC(=O)[C@H]([C@@H](C)O)NC(=O)[C@H](CC(N)=O)NC(=O)[C@@H](NC(C)=O)C(C)(C)SSC(C)(C)[C@@H](C(=O)N[C@@H](Cc2ccc(OCCN)cc2)C(=O)N[C@@H](Cc2ccc3ccccc3c2)C(=O)N[C@@](C)(CCCCN)C(=O)N[C@@H](CCCCNC(C)=O)C(=O)N[C@@H](CC(N)=O)C(=O)N[C@@H](CC(C)C)C(N)=O)NC1=O` [compound 244], the half-life at 20 μM in data set [2] was 15 h.
With `CC(=O)NCCCC[C@@H]1NC(=O)[C@H](Cc2c[nH]c3c(C)cccc23)NC(=O)[C@H]([C@@H](C)O)NC(=O)[C@H](CC(N)=O)NC(=O)[C@@H](NC(C)=O)C(C)(C)SSC(C)(C)[C@@H](C(=O)N[C@@H](Cc2ccc(OCCN)cc2)C(=O)N[C@@H](Cc2ccc3ccccc3c2)C(=O)N[C@@](C)(CCCCN)C(=O)N[C@@H](CCCCNC(C)=O)C(=O)N[C@@H](CC(N)=O)C(=O)N[C@@H](CCCNC(N)=O)C(N)=O)NC1=O` [compound 249], the figures for the half-life at 20 μM in data set [1] and in data set [2] were 3 h and more than 17 h, respectively.
For `CC(=O)NCCCC[C@@H]1NC(=O)[C@H](Cc2c[nH]c3c(C)cccc23)NC(=O)[C@H]([C@@H](C)O)NC(=O)[C@H](CC(N)=O)NC(=O)[C@@H](NC(C)=O)C(C)(C)SSC(C)(C)[C@@H](C(=O)N[C@@H](Cc2ccc(OCCN)cc2)C(=O)N[C@@H](Cc2ccc3ccccc3c2)C(=O)N[C@@](C)(CCCCN)C(=O)N[C@@H](CCCCNC(C)=O)C(=O)N[C@@H](CC(N)=O)C(=O)N[C@H](C(N)=O)C(C)C)NC1=O` [compound 250], the half-life at 20 μM in data set [1] is 11 h; in data set [2], more than 19.5 h.
In the case of `CC(=O)NCCCC[C@@H]1NC(=O)[C@H](Cc2c[nH]c3c(C)cccc23)NC(=O)[C@H]([C@@H](C)O)NC(=O)[C@H](CC(N)=O)NC(=O)[C@@H](NC(C)=O)C(C)(C)SSC(C)(C)[C@@H](C(=O)N[C@@H](Cc2ccc(OCCN)cc2)C(=O)N[C@@H](Cc2ccc3ccccc3c2)C(=O)N[C@@](C)(CCCCN)C(=O)N[C@@H](CCCCNC(C)=O)C(=O)N[C@@H](CC(N)=O)C(=O)N[C@@H](C(N)=O)C(C)C)NC1=O` [compound 251], the half-life at 20 μM in data set [1] was 20 h.
With `CC(=O)NCCCC[C@@H]1NC(=O)[C@H](Cc2c[nH]c3c(C)cccc23)NC(=O)[C@H]([C@@H](C)O)NC(=O)[C@H](CC(N)=O)NC(=O)[C@@H](NC(C)=O)C(C)(C)SSC(C)(C)[C@@H](C(=O)N[C@@H](Cc2ccc(OCCN)cc2)C(=O)N[C@@H](Cc2ccc3ccccc3c2)C(=O)N[C@@](C)(CCCCN)C(=O)N[C@@H](CCCCNC(C)=O)C(=O)N[C@@H](CC(N)=O)C(=O)N2CCC[C@H]2C(N)=O)NC1=O` [compound 253], the half-life at 20 μM in data set [1] was 10 h.
As to `CC(=O)NCCCC[C@H](NC(=O)[C@](C)(CCCCN)NC(=O)[C@H](Cc1ccc2ccccc2c1)NC(=O)[C@H](Cc1ccc(OCCN)cc1)NC(=O)[C@H]1NC(=O)[C@H](CCCNC(N)=O)NC(=O)[C@H](Cc2c[nH]c3c(C)cccc23)NC(=O)[C@H]([C@@H](C)O)NC(=O)[C@H](CC(N)=O)NC(=O)[C@@H](NC(C)=O)C(C)(C)SSC1(C)C)C(=O)N[C@@H](CC(N)=O)C(=O)N[C@@H](C(N)=O)[C@H](C)O` [compound 263] (Ac-[Pen]NT[Trp(7-Me)][Cit][Pen][AEF][2Nal][αMeK]K(Ac)N[dT]-NH2; disulfide 1-6), in data set [1], the “SIF t½” value is 24 h.
In the case of `CCCCCCCC(=O)NCCCC[C@@H]1NC(=O)[C@H](Cc2c[nH]c3c(C)cccc23)NC(=O)[C@H]([C@@H](C)O)NC(=O)[C@H](CC(N)=O)NC(=O)[C@@H](NC(C)=O)C(C)(C)SSC(C)(C)[C@@H](C(=O)N[C@@H](Cc2ccc(OCCN)cc2)C(=O)N[C@@H](Cc2ccc3ccccc3c2)C(=O)N[C@@](C)(CCCCN)C(=O)N[C@@H](CCCCNC(C)=O)C(=O)N[C@@H](CC(N)=O)C(=O)N[C@H](CC(C)C)C(N)=O)NC1=O` [compound 317], the half-life at 20 μM (in data set [3]; in the data set “Stability in rat plasma”; in data set [2]) was more than 24 h throughout.
As for `CC(=O)NCCCC[C@H](NC(=O)[C@](C)(CCCCN)NC(=O)[C@H](Cc1ccc2ccccc2c1)NC(=O)[C@H](Cc1ccc(OCCN)cc1)NC(=O)[C@H]1NC(=O)[C@H](CCCCNC(=O)CC(F)(F)F)NC(=O)[C@H](Cc2c[nH]c3c(C)cccc23)NC(=O)[C@H]([C@@H](C)O)NC(=O)[C@H](CC(N)=O)NC(=O)[C@@H](NC(C)=O)C(C)(C)SSC1(C)C)C(=O)N[C@@H](CC(N)=O)C(=O)N[C@H](CC(C)C)C(N)=O` [compound 319], the half-life at 20 μM (in data set [3]; in the data set “Stability in rat plasma”; in data set [2]) was more than 24 h in each case.
In the case of `CC(=O)NCCCC[C@@H]1NC(=O)[C@H](Cc2c[nH]c3c(C)cccc23)NC(=O)[C@H]([C@@H](C)O)NC(=O)[C@H](CCC(N)=O)NC(=O)[C@@H](NC(=O)[C@@H](CCCNC(=N)N)NC(C)=O)CCSC[C@@H](C(=O)N[C@@H](Cc2ccc(OCCN)cc2)C(=O)N[C@@H](Cc2ccc3ccccc3c2)C(=O)N[C@@](C)(CCCCN)C(=O)N[C@@H](CCCCNC(C)=O)C(=O)N[C@@H](CC(N)=O)C(N)=O)NC1=O` [compound 326] (Ac-[dR][Abu(4-yl)]QT[Trp(7-Me)]K(Ac)C[AEF][2Nal][αMeK]K(Ac)N-NH2; thioether 2-7), the half-life at 20 μM in data set [1] was 4 h; in the data set “Stability in rat plasma”, more than 24 h.
Turning to `CC(=O)NCCCC[C@H](NC(=O)[C@](C)(CCCCN)NC(=O)[C@H](Cc1ccc2ccccc2c1)NC(=O)[C@H](Cc1ccc(OCCN)cc1)NC(=O)[C@H]1NC(=O)[C@H](CCCNC(N)=O)NC(=O)[C@H](Cc2c[nH]c3c(C)cccc23)NC(=O)[C@H]([C@@H](C)O)NC(=O)[C@H](CC(N)=O)NC(=O)[C@@H](NC(C)=O)C(C)(C)SSC1(C)C)C(=O)N[C@@H](CC(N)=O)C(=O)NC(C)(C)C(=O)N[C@@H](CCCNC(=N)N)C(N)=O` [compound 343] (Ac-[Pen]NT[Trp(7-Me)][Cit][Pen][AEF][2Nal][αMeK]K(Ac)N[Aib]R-NH2; disulfide 1-6), the half-life at 20 μM in data set [1] was 13 h; in “Stability in rat plasma”, more than 24 h; in data set [2], 12 h.
